Reference: paper PMC3311629, “Rational Design and Characterization of D-Phe-Pro-D-Arg-Derived Direct Thrombin Inhibitors” (PLoS ONE, 2012)
Square brackets hold non-standard residues; d marks the D form. Peptide text beside a SMILES is read from it. 2Thi = N[C@@H](Cc1cccs1)C(=O)O

Tests used:
bovine α-thrombin = bovine α-thrombin (Bos taurus, UniProt P00735); test: Inhibition of thrombin's hydrolytic activity towards chromogenic substrate S2238; format: biochemical; details: bovine α-thrombin 5 nM, 25°C, pH 7.46
Experimental: In a first instance, the inhibitory constants (Ki) for all peptides were determined using pseudo-first order kinetics. […] Substrate hydrolysis at 25°C, in sodium phosphate buffer pH 7.46, with 0.2 M NaCl and 50 µg/ml bovine serum albumin was monitored in real-time at 405 nm using a thermostated spectrophotometer (Cary), assuring that the hydrolysis of the chromogenic substrate was complete. Each kinetic trace was fitted to a first-order reaction mathematical model (At = A0*e^−kt or At = A0+a*(1−e^−kt)). The Ki was determined from the equation Ki = [I]/(kobs uninhibited/kobs inhibited−1), where kobs is the pseudo-first order rate constant and [I] is the molar inhibitor concentration. For the inhibitors that were structurally characterized, the kinetic parameters of S2238 hydrolysis and the type of inhibition were determined using 5 nM bovine α-thrombin (Sigma) and varying concentrations of both substrate (0–200 µM) and peptide inhibitors (0–50 µM). The data was fitted to a competitive enzyme inhibition model using Prism5 (GraphPad Software) and the built-in nonlinear regression global analysis package to determine the values for Ki, KM and Vmax. The goodness of fit was assessed using the built-in statistical analysis package, which enabled the calculation of R^2 values.

factor Xa = biological target: T1, factor Xa (Homo sapiens, UniProt P00742); test: Inhibitory activity towards factor Xa (chromogenic substrate S2222); format: biochemical; details: for Ki: factor Xa 15 nM, S2222 0.18 mM, Ki = IC50/(1+S/KM), competitive mechanism assumed; for selectivity for thrombin versus factor Xa: ratio of Ki values, thrombin vs factor Xa
T1 construct: Factor Xa (15 nM; American Diagnostica); purchased American Diagnostica
Experimental: (§1) Factor Xa (15 nM; American Diagnostica) or trypsin (25 nM; Sigma) was incubated for 15 min at room temperature with 20–1600 µM of fPrI, fPrC or fPrt in 50 mM Tris-HCl pH 8.0 and 150 mM NaCl (factor Xa) or 50 mM Tris-HCl pH 8.0, 150 mM NaCl and 160 mM CaCl2 prior to substrate addition. The chromogenic substrates were S2222 (Nα-Benzoyl-L-isoleucyl-L-glutamyl-glycyl-L-arginine-4-nitroanilide hydrochloride; American Diagnostica) for factor Xa or BAPNA (Nα-Benzoyl-L-arginine-4-nitroanilide hydrochloride; Sigma) for trypsin. Substrate hydrolysis was monitored at 405 (S2222) or 410 nm (BAPNA) using a thermostated spectrophotometer (Cary). IC50 values were determined using the built in equation provided by Prism5 (GraphPad Software).

trypsin = biological target: T2, trypsin (Bos taurus, UniProt P00760); test: Inhibitory activity towards trypsin (chromogenic substrate BAPNA); format: biochemical; details: for selectivity for thrombin versus trypsin: ratio of Ki values, thrombin vs trypsin; for Ki: trypsin 25 nM, BAPNA 1.84 mM, Ki = IC50/(1+S/KM), competitive mechanism assumed
T2 sequence (P00760 24-246): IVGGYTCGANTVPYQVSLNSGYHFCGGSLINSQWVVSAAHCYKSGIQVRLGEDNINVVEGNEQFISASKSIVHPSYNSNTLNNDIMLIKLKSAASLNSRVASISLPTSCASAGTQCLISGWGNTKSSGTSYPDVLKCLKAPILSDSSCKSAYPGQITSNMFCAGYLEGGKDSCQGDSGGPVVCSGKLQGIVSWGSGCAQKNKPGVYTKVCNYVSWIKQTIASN
Experimental: as §1

α-thrombin = α-thrombin (Bos taurus, UniProt P00735); test: Inhibitor resistance to proteolysis by thrombin (ESI mass spectrometry); format: in vitro ADME; details: 20 µM peptide with 20 µM α-thrombin, 24 h, room temperature, pH 7.46, mass spectrometry
Experimental: After 24 h incubation, aliquots were removed and the reaction was quenched with 0.1% TFA. The samples were analyzed on an ESI spectrometer run in the positive mode. As the expected molecular mass of the tripeptide resulting from the hydrolysis of the D-Arg-P1′ peptide bond is 418.5 Da, spectra were acquired in the 400–1000 Da window.

T1 sequence (P00742 235-488 limits assumed): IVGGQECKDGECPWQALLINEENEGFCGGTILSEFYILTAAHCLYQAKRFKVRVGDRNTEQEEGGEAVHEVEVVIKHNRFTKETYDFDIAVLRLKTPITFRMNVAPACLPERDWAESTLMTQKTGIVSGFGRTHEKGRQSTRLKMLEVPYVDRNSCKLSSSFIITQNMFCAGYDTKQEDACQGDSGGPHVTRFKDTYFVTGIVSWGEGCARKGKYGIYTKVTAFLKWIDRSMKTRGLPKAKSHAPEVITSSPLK
T1 sequence (P00742 41-179 partner limits assumed): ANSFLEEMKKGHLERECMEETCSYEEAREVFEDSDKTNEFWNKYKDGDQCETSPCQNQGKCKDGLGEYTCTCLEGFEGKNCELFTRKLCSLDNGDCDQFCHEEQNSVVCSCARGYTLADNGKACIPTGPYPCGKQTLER

## C[C@H](NC(=O)[C@@H](CCCNC(=N)N)NC(=O)[C@@H]1CCCN1C(=O)[C@H](N)Cc1ccccc1)C(N)=O [Peptide 1, D-Phe-Pro-D-Arg-Ala] (H-[dF]P[dR]A-NH2; N-terminus assumed)
Bovine α-thrombin
  Ki: 16.6 ± 0.8 µM

## C[C@@H](NC(=O)[C@@H](CCCNC(=N)N)NC(=O)[C@@H]1CCCN1C(=O)[C@H](N)Cc1ccccc1)C(N)=O [Peptide 2, D-Phe-Pro-D-Arg-D-Ala] (H-[dF]P[dR][dA]-NH2)
Bovine α-thrombin
  Ki: 2.06 ± 0.04 µM

## N=C(N)NCCC[C@@H](NC(=O)[C@@H]1CCCN1C(=O)[C@H](N)Cc1ccccc1)C(=O)NCC(N)=O [Peptide 3, D-Phe-Pro-D-Arg-Gly] (H-[dF]P[dR]G-NH2)
Bovine α-thrombin
  Ki: 5.9 ± 0.2 µM

## N=C(N)NCCC[C@H](NC(=O)[C@@H](CCCNC(=N)N)NC(=O)[C@@H]1CCCN1C(=O)[C@H](N)Cc1ccccc1)C(N)=O [Peptide 4, D-Phe-Pro-D-Arg-Arg] (H-[dF]P[dR]R-NH2)
Bovine α-thrombin
  Ki: 91.1 ± 8.2 µM

## N=C(N)NCCC[C@@H](NC(=O)[C@@H]1CCCN1C(=O)[C@H](N)Cc1ccccc1)C(=O)N[C@@H](CCCCN)C(N)=O [Peptide 5, D-Phe-Pro-D-Arg-Lys] (H-[dF]P[dR]K-NH2)
Bovine α-thrombin
  Ki: 66.6 ± 6.5 µM

## N=C(N)NCCC[C@@H](NC(=O)[C@@H]1CCCN1C(=O)[C@H](N)Cc1ccccc1)C(=O)N[C@@H](CCC(=O)O)C(N)=O [Peptide 6, D-Phe-Pro-D-Arg-Glu] (H-[dF]P[dR]E-NH2)
Bovine α-thrombin
  Ki: 556 ± 89.6 µM

## N=C(N)NCCC[C@@H](NC(=O)[C@@H]1CCCN1C(=O)[C@H](N)Cc1ccccc1)C(=O)N[C@@H](Cc1c[nH]cn1)C(N)=O [Peptide 7, D-Phe-Pro-D-Arg-His] (H-[dF]P[dR]H-NH2)
Bovine α-thrombin
  Ki: 122 ± 9.5 µM

## N=C(N)NCCC[C@@H](NC(=O)[C@@H]1CCCN1C(=O)[C@H](N)Cc1ccccc1)C(=O)N[C@@H](Cc1ccccc1)C(N)=O [Peptide 8, D-Phe-Pro-D-Arg-Phe] (H-[dF]P[dR]F-NH2)
Bovine α-thrombin
  Ki: 250 ± 20 µM

## N=C(N)NCCC[C@@H](NC(=O)[C@@H]1CCCN1C(=O)[C@H](N)Cc1ccccc1)C(=O)N1CCC[C@H]1C(N)=O [Peptide 9, D-Phe-Pro-D-Arg-Pro] (H-[dF]P[dR]P-NH2)
Bovine α-thrombin
  Ki: 89.5 ± 5.5 µM

## N=C(N)NCCC[C@@H](NC(=O)[C@@H]1CCCN1C(=O)[C@H](N)Cc1ccccc1)C(=O)N1CCC[C@@H]1C(N)=O [Peptide 10, D-Phe-Pro-D-Arg-D-Pro] (H-[dF]P[dR][dP]-NH2)
Bovine α-thrombin
  Ki: 489 ± 113 µM

## N=C(N)NCCC[C@@H](NC(=O)[C@@H]1CCCN1C(=O)[C@H](N)Cc1ccccc1)C(=O)N[C@@H](Cc1c[nH]c2ccccc12)C(N)=O [Peptide 11, D-Phe-Pro-D-Arg-Trp] (H-[dF]P[dR]W-NH2)
Bovine α-thrombin
  Ki: 65.6 ± 7.2 µM

## N=C(N)NCCC[C@@H](NC(=O)[C@@H]1CCCN1C(=O)[C@H](N)Cc1ccccc1)C(=O)N[C@@H](Cc1ccc(O)cc1)C(N)=O [Peptide 12, D-Phe-Pro-D-Arg-Tyr] (H-[dF]P[dR]Y-NH2)
Bovine α-thrombin
  Ki: 50.5 ± 3.4 µM

## CC(C)[C@H](NC(=O)[C@@H](CCCNC(=N)N)NC(=O)[C@@H]1CCCN1C(=O)[C@H](N)Cc1ccccc1)C(N)=O [Peptide 13, D-Phe-Pro-D-Arg-Val] (H-[dF]P[dR]V-NH2)
Bovine α-thrombin
  Ki: 56.3 ± 1.5 µM

## CC(C)[C@@H](NC(=O)[C@@H](CCCNC(=N)N)NC(=O)[C@@H]1CCCN1C(=O)[C@H](N)Cc1ccccc1)C(N)=O [Peptide 14, D-Phe-Pro-D-Arg-D-Val] (H-[dF]P[dR][dV]-NH2)
Bovine α-thrombin
  Ki: 2.17 ± 0.6 µM

## C[C@@H](O)[C@H](NC(=O)[C@@H](CCCNC(=N)N)NC(=O)[C@@H]1CCCN1C(=O)[C@H](N)Cc1ccccc1)C(N)=O [Peptide 15, D-Phe-Pro-D-Arg-Thr] (H-[dF]P[dR]T-NH2)
Bovine α-thrombin
  Ki: 12.5 ± 0.35 µM

## C[C@H](O)[C@@H](NC(=O)[C@@H](CCCNC(=N)N)NC(=O)[C@@H]1CCCN1C(=O)[C@H](N)Cc1ccccc1)C(N)=O [Peptide 16, D-Phe-Pro-D-Arg-D-Thr] (H-[dF]P[dR][dT]-NH2)
Factor Xa
  Ki: 103 ± 1.44 µM
  selectivity for thrombin versus factor Xa: 110 fold
trypsin
  selectivity for thrombin versus trypsin: 420 fold
  Ki: 389 ± 5.5 µM
α-thrombin
  Stability against thrombin hydrolysis (cleavage product D-Phe-Pro-D-Arg, 418.5 Da): could not be identified
Bovine α-thrombin
  Ki: 0.92 ± 0.08 µM

## N=C(N)NCCC[C@@H](NC(=O)[C@@H]1CCCN1C(=O)[C@H](N)Cc1ccccc1)C(=O)N[C@@H](CO)C(N)=O [Peptide 17, D-Phe-Pro-D-Arg-Ser] (H-[dF]P[dR]S-NH2)
Bovine α-thrombin
  Ki: 17.1 ± 0.8 µM

## N=C(N)NCCC[C@@H](NC(=O)[C@@H]1CCCN1C(=O)[C@H](N)Cc1ccccc1)C(=O)N[C@H](CO)C(N)=O [Peptide 18, D-Phe-Pro-D-Arg-D-Ser] (H-[dF]P[dR][dS]-NH2)
Bovine α-thrombin
  Ki: 12.3 ± 0.08 µM

## N=C(N)NCCC[C@@H](NC(=O)[C@@H]1CCCN1C(=O)[C@H](N)Cc1ccccc1)C(=O)N[C@@H](CS)C(N)=O [Peptide 19, D-Phe-Pro-D-Arg-Cys] (H-[dF]P[dR]C-NH2)
Factor Xa
  Ki: 41.4 ± 2.6 µM
  selectivity for thrombin versus factor Xa: 3 fold
trypsin
  selectivity for thrombin versus trypsin: 20 fold
  Ki: 377.1 ± 3.6 µM
α-thrombin
  Stability against thrombin hydrolysis (cleavage product D-Phe-Pro-D-Arg, 418.5 Da): could not be identified
Bovine α-thrombin
  Ki: 16.5 ± 1.5 µM

## N=C(N)NCCC[C@@H](NC(=O)[C@@H]1CCCN1C(=O)[C@H](N)Cc1ccccc1)C(=O)N[C@H](CS)C(N)=O [Peptide 20, D-Phe-Pro-D-Arg-D-Cys] (H-[dF]P[dR][dC]-NH2)
Bovine α-thrombin
  Ki: 2.4 ± 0.05 µM

## N=C(N)NCCC[C@@H](NC(=O)[C@@H]1CCCN1C(=O)[C@H](N)Cc1ccccc1)C(=O)N[C@@H](CCC(N)=O)C(N)=O [Peptide 21, D-Phe-Pro-D-Arg-Gln] (H-[dF]P[dR]Q-NH2)
Bovine α-thrombin
  Ki: 43.1 ± 2.6 µM

## N=C(N)NCCC[C@@H](NC(=O)[C@@H]1CCCN1C(=O)[C@H](N)Cc1ccccc1)C(=O)N[C@H](CCC(N)=O)C(N)=O [Peptide 22, D-Phe-Pro-D-Arg-D-Gln] (H-[dF]P[dR][dQ]-NH2)
Bovine α-thrombin
  Ki: 19.3 ± 0.6 µM

## CC[C@H](C)[C@H](NC(=O)[C@@H](CCCNC(=N)N)NC(=O)[C@@H]1CCCN1C(=O)[C@H](N)Cc1ccccc1)C(N)=O [Peptide 23, D-Phe-Pro-D-Arg-Ile] (H-[dF]P[dR]I-NH2)
Factor Xa
  Ki: 7300 µM
trypsin
  selectivity for thrombin versus trypsin: 12 fold
  Ki: 90.2 ± 2.8 µM
α-thrombin
  Stability against thrombin hydrolysis (cleavage product D-Phe-Pro-D-Arg, 418.5 Da): could not be identified
Bovine α-thrombin
  Ki: 7.7 ± 0.73 µM

## CC[C@@H](C)[C@@H](NC(=O)[C@@H](CCCNC(=N)N)NC(=O)[C@@H]1CCCN1C(=O)[C@H](N)Cc1ccccc1)C(N)=O [Peptide 24, D-Phe-Pro-D-Arg-D-Ile] (H-[dF]P[dR][dI]-NH2)
Bovine α-thrombin
  Ki: 7.44 ± 0.5 µM

## CC(C)C[C@H](NC(=O)[C@@H](CCCNC(=N)N)NC(=O)[C@@H]1CCCN1C(=O)[C@H](N)Cc1ccccc1)C(N)=O [Peptide 25, D-Phe-Pro-D-Arg-Leu] (H-[dF]P[dR]L-NH2)
Bovine α-thrombin
  Ki: 20.6 ± 4.5 µM

## CC(C)C[C@@H](NC(=O)[C@@H](CCCNC(=N)N)NC(=O)[C@@H]1CCCN1C(=O)[C@H](N)Cc1ccccc1)C(N)=O [Peptide 26, D-Phe-Pro-D-Arg-D-Leu] (H-[dF]P[dR][dL]-NH2)
Bovine α-thrombin
  Ki: 4.13 ± 0.24 µM

## N=C(N)NCCC[C@@H](NC(=O)[C@@H]1CCCN1C(=O)[C@H](N)Cc1ccccc1)C(=O)N[C@@H](Cc1cccs1)C(N)=O [Peptide 27, D-Phe-Pro-D-Arg-Thi] (H-[dF]P[dR][2Thi]-NH2)
Bovine α-thrombin
  Ki: 8.16 ± 0.35 µM

## CSCC[C@H](NC(=O)[C@@H](CCCNC(=N)N)NC(=O)[C@@H]1CCCN1C(=O)[C@H](N)Cc1ccccc1)C(N)=O [Peptide 28, D-Phe-Pro-D-Arg-Met] (H-[dF]P[dR]M-NH2)
Bovine α-thrombin
  Ki: 37.2 ± 2.5 µM
